From US8822447B2, “Indazole compounds useful as ketohexokinase inhibitors” (Janssen Pharmaceutica NV, priority 2010, dated 2014)
Structures can show the parent of a compound that is named as a salt.

Biological target: KHK (Homo sapiens (Human), UniProt P50053)
Test: In Vitro KHK Enzyme Assay (HTMS);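 also: primary screen measuring inhibition of KHK-catalysed conversion of D-fructose into fructose 1-phosphate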
Format: biochemical
Details: 200 μM fructose, 100 μM ATP, 2 nM KHK, 60 min at 25° C.; Fructose-1-P detected by high throughput mass spectrometry
Procedure: An enzymatic assay was developed to measure KHK-mediated conversion of D-fructose to Fructose-1-P (F-1-P) using High Throughput Mass Spectroscopy (HTMS) as a means of product detection. This assay served as a primary screen to evaluate the ability to inhibit KHK enzyme activity and it has been adapted to high throughput mass spectrometry (HTMS, BioTrove RapidFire™) format for higher throughput.
The compounds to be tested were dosed in 12-points concentration from 511 μM to 0.5 μM. […] The assay was carried out in 384-well plate format.

Chain of KHK (P50053 whole entry): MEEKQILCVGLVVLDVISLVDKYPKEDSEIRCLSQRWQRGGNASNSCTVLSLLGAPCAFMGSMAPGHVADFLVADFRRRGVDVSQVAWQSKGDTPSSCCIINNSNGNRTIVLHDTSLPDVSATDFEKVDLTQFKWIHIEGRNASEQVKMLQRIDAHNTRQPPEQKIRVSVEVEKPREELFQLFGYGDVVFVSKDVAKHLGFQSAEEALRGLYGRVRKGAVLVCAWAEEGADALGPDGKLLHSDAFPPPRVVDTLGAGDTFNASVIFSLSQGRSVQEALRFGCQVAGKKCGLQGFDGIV

**Q.** How did the IC50 turn out when `COc1nn(-c2ccccc2)c2cc(N3CCN(C4CNC4)CC3)ccc12` [Compound 74, 6-(4-(Azetidin-3-yl)piperazin-1-yl)-3-methoxy-1-phenyl-1H-indazole hydrochloride] was run?
**A.** Its IC50 is 5.96 µM.

**Q.** With `CCc1nn(-c2ccccc2)c2cc(N3CCN(CC)CC3)ccc12` [Compound 55, 3-Ethyl-6-(4-ethylpiperazin-1-yl)-1-phenyl-1H-indazole] as the compound, how does the IC50 read?
**A.** The IC50 was 11.5 µM.

**Q.** With `CSc1nn(-c2ccccc2)c2cc(NCCN3CCNCC3)ccc12` [Compound 165, (3-Methylsulfanyl-1-phenyl-1H-indazol-6-yl)-(2-piperazin-1-yl-ethyl)-amine] as the compound, how does the IC50 read?
**A.** The IC50 was 0.89 µM.

**Q.** For `CCc1nn(-c2ccccc2)c2cc(N3CC4CNCC4C3)ccc12` (stereo not drawn) [Compound 50, 3-Ethyl-6-(hexahydropyrrolo[3,4-c]pyrrol-2(1H)-yl)-1-phenyl-1H-indazolehydrochloride], which IC50 is on record?
**A.** The IC50 was 5.36 µM.

**Q.** Which IC50 does the source give for `CSc1nn(-c2ccc([N+](=O)[O-])cc2)c2cc(C(=O)N3CCNCC3)ccc12` [Compound 133, [3-Methylsulfanyl-1-(4-nitro-phenyl)-1H-indazol-6-yl]-piperazin-1-yl-methanone] here?
**A.** Its IC50 is greater than 51 µM.

**Q.** For `CSc1nn(-c2ccccc2)c2cc(N3CC(N4CCNCC4)C3)ccc12` [Compound 15, 3-(Methylthio)-1-phenyl-6-(3-(piperazin-1-yl)azetidin-1-yl)-1H-indazole hydrochloride], which IC50 is on record?
**A.** Its IC50 is 0.56 µM.

**Q.** Which IC50 does the source give for `CSc1nn(-c2ccccc2)c2cc(NC3CCNCC3)ccc12` [Compound 109, (3-Methylsulfanyl-1-phenyl-1H-indazol-6-yl)-piperidin-4-yl-amine] here?
**A.** Its IC50 is 0.77 µM.

**Q.** With `Cc1nn(-c2ccccc2)c2cc(N3CCNC(C)C3)ccc12` (stereo not drawn) [Compound 71, 3-Methyl-6-(3-methylpiperazin-1-yl)-1-phenyl-1H-indazole formic acid salt] as the compound, how does the IC50 read?
**A.** Its IC50 is 0.4 µM.

**Q.** `Cc1nn(-c2ccccc2)c2nc(CC3CCN(C4CNC4)CC3)nc(O)c12` [Compound 90, 6-(1-Azetidin-3-yl-piperidin-4-ylmethyl)-3-methyl-1-phenyl-1H-pyrazolo[3,4-d]pyrimidin-4-ol] was tested. Which IC50 did it give?
**A.** The IC50 was greater than 30 µM.
